Test results from US10981893B2, “Therapeutic inhibitory compounds” (Attune Pharmaceuticals, Inc., priority 2015, dated 2021).

Experiments:
human Plasma Kallikrein = human Plasma Kallikrein (Homo sapiens (Human), UniProt P03952); test: In vitro enzyme inhibition of human plasma kallikrein (Pro-Phe-Arg-AMC cleavage); type: biochemical; settings: PFR-AMC substrate, 37° C., read-out: hPK IC50
Method: The ability of the compounds disclosed herein to inhibit human plasma kallikrein activity was quantified according to the procedures below.
A 10 mM solution of the test compound was made in DMSO. This solution was serially diluted 1:5 in DMSO to yield 2000, 400, 80, 16, 3.2, 0.64, 0.128, 0.0256 and 0.00512 μM compound test solutions. A control tube containing only DMSO is included. 16 μL of each compound test solution was combined with 384 μL of assay buffer (50 mM Tris-HCl pH 7.5, 150 mM NaCl, 0.01% Triton X-100) to yield a “4× test compound buffer stock”.
Separately, a 40 nM solution of human Plasma Kallikrein (Abcam) and a 93.6 μM solution Pro-Phe-Arg-AMC (Bachem) were made using assay buffer. These solutions are hereby refereed to as 4×hPK and 2×PFR-AMC, respectively.
60 μL of each 4× test compound buffer stock was combined with 60 μL of 4× hPK to yield 120 μL of “2× test compound buffer stock/2×hPK”. 50 μL was removed from this mixture and placed into duplicate wells on a Microfluor 1 Black U-bottom microtiter plate (Thermo Scientific). This plate was incubated for 5 minutes at 37° C. To each well, 50 μL of pre-warmed 2×PFR-AMC was added to start the enzymatic reaction. Cleavage of PFR-AMC was monitored in a Biotek Synergy H4 reader set at 37° C. Readings are taken every 43 seconds for 1 hour. The highest mean velocity over 20 reads (˜15 minutes) is used to calculate the IC50. The IC50 is calculated using the Gen5 (Biotek Instruments).
The ability of the compounds in Table 1 to inhibit human plasma kallikrein activity was determined and the data is shown in Table 3.

[1] = biological target: kallikrein in human plasma (Homo sapiens (Human), UniProt P03952); test: In vitro cellular assay / contact assay: kallikrein activity in ellagic acid-activated human plasma (Z-FR-2-AMC substrate); type: biochemical; settings: human plasma activated with ellagic acid, 37° C.
Chain of kallikrein in human plasma (P03952 391-638 limits assumed): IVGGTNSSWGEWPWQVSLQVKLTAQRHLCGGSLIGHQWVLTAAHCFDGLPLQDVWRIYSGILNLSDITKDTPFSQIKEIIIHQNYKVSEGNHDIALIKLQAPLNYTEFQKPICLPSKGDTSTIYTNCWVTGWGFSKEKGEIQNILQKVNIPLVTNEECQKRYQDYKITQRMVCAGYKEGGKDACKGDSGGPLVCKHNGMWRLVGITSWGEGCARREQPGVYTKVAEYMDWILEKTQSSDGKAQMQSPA
Chain of kallikrein in human plasma (P03952 20-390 partner limits assumed): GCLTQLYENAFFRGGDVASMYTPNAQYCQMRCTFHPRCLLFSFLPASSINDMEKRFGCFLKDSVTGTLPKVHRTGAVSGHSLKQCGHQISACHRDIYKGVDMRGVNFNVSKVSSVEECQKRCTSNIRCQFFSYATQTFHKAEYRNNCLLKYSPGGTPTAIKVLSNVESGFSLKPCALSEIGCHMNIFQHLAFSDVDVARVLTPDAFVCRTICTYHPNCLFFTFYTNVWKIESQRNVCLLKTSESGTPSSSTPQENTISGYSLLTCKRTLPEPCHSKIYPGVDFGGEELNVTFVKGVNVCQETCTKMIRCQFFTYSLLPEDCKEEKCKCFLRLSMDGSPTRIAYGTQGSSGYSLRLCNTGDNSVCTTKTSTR
Method: The ability of the compounds disclosed herein to inhibit cellular kallikrein activity was quantified and the respective EC50 value was determined.
Plasma kallikrein inhibitor C1NH (Athens Research & Technology, Cat #16-16-031509); Ellagic acid (Sigma, E2250); Substrate Z—FR-2-AMC (GL Biochem, Cat #55352); Nunc™ 96-Well Polypropylene MicroWell™ Plates (Nunc, Cat #267342)
All dilutions were prepared in an assay buffer comprising 50 mM Tris-HCl pH 7.2, 150 mM NaCl, and 0.01% Triton X-100.
Four fold serial dilutions were prepared from a 107.53 μM plasma kallikrein inhibitor C1NH stock solution, to yield ten solutions with concentrations between 20 μM and […]. Similarly, four fold serial dilutions were prepared from 10 mM stock solutions of various test compounds, to yield ten solutions with concentrations between 4 mM and 0.015 μM. The ten solutions of the test compounds, prepared by serial dilution, were further diluted 50-fold in the assay buffer.
Human plasma is thawed on ice and centrifuged for 15 min at 4° C. to remove platelets. A 1 mM stock solution of ellagic acid is diluted to 8 μM and mixed with human plasma, after removing platelets, at a ratio of 1:0.8. The mixture of human plasma and ellagic acid was further diluted 32-fold in the assay buffer, to yield the final mixture for use in the inhibition assay.
A 22.5 μL volume of the final mixture of human plasma and ellagic acid was added to a 96-well microwell plate and the plate was incubated for 15 min at 37° C.
The test compounds at various concentrations, also prepared by serial dilutions as described above, are added to the test wells. The volume of test compound added to each test well was 12.5 μL, to yield final concentrations of 20 μM, 5 μM, 1.25 μM, 312.5 nM, 78.125 nM, 19.531 nM, 4.883 nM, 1.221 nM, 0.305 nM, and 0.076 nM. Each test compound concentration was tested in duplicates.
In addition to the inhibitor control and test wells, the 96 well assay plate includes positive control wells which contained the mixture of human plasma and ellagic acid without C1NH inhibitor or test compounds, and background wells which contained neither the mixture of human plasma and ellagic acid nor the test compounds. The total volume of liquid in positive control and background wells was brought up to 35 μL, using the assay buffer.
The assay plate containing C1NH inhibitors and test compounds mixed with human plasma and ellagic acid and appropriate controls was incubated at 37° C. for 5 min. A 10 mM stock solution of substrate Z—FR-2-AMC was diluted to 133.2 μM in the assay buffer, and 15 μL of the diluted substrate was added to each well, to yield a final substrate concentration of 40 μM in each well. […]
The enzyme reaction was quantified by immediate kinetic reading of the assay plate using excitation/emission wavelengths of 330 nm/440 nm respectively. Fluorescence intensity was recorded for 60 min, using a time interval of 43 sec.
The inhibition activity of the test compounds were evaluated using the IC50 values, calculated according to the dose-response curve of the test compounds, fitted using the “log(inhibitor)-response(variable slope)” equation in GraphPadPrism software (GraphPad Software, Inc.).
The percentage inhibition was calculated using the following equation:
[formula] where, Mean(BG) is the average value of the fluorescence intensity of the background wells and Mean(PC) is the average value of the fluorescence intensity of the positive control wells. […]

Chain of human Plasma Kallikrein (P03952 391-638 limits assumed): as the sequence (P03952 391-638 limits assumed) above
Chain of human Plasma Kallikrein (P03952 20-390 partner limits assumed): as the sequence (P03952 20-390 partner limits assumed) above

| SMILES | IC50 (human Plasma Kallikrein) [nM] | EC50 [1] [nM] |
| --- | --- | --- |
| Cc1nc(N)ccc1CNC(=O)c1ccnc(Cc2ccc(Cn3ccccc3=O)c(S(C)(=O)=O)c2)c1 [Example 23, N-((6-amino-2-methylpyridin-3-yl)methyl)-2-(3-(methylsulfonyl)-4-((2-oxopyridin-1(2H)-yl)methyl)benzyl)isonicotinamide] | ≤ 100 | ≤ 100 |
| Cc1cc(N)nc(C)c1CNC(=O)c1cncc(Cc2ccc3ncc(Cl)cc3c2)n1 [Example 25, N-((6-amino-2,4-dimethylpyridin-3-yl)methyl)-6-((3-chloroquinolin-6-yl)methyl)pyrazine-2-carboxamide] | ≤ 100 | ≤ 100 |
| CS(=O)(=O)c1cc(Cc2cc(C(=O)NCc3cnc4[nH]cc(Cl)c4c3)ccn2)ccc1Cn1ccccc1=O [Example 29] | ≤ 100 | ≤ 100 |
